Results reported in patent US5053399A, “Myo-inositol analogs and methods for their use” (University of Pittsburgh, priority 1990, dated 1991).

Assays:
[1] = molecular target: T1, myo-inositol transporter (Rattus norvegicus, UniProt Q80WA5); assay: [3H]myo-inositol uptake by the myo-inositol transporter in PC12 cells; type: cell-based; conditions: for Maximal Transport Rate Vmax: in presence of fixed 1 mM analog
T1 construct: PC12 cells were gently detached and maintained in a suspension culture; endogenous in cells; host or cells: PC12
T1 sequence (Q80WA5 1-718): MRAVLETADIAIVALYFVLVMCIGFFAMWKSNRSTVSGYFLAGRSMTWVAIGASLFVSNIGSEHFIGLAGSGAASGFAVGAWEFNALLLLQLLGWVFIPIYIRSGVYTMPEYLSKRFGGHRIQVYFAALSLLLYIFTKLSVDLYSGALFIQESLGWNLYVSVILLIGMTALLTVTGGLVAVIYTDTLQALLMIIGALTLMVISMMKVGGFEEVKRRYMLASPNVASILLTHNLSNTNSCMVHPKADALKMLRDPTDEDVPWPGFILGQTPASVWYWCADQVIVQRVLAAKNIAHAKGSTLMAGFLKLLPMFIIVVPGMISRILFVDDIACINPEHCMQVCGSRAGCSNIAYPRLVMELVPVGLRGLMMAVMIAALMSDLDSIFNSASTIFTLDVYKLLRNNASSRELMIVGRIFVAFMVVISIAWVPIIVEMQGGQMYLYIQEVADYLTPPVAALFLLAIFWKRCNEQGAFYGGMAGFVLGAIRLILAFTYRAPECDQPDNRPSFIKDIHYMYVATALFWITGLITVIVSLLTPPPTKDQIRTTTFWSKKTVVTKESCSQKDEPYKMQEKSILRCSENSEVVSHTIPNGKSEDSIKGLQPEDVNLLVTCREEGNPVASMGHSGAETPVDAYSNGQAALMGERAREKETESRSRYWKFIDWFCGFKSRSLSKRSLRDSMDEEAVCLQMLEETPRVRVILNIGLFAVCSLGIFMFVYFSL
Protocol: To determine if the effect of the fluoro-myo-inositol analogs might be mediated by the blockade of the myo-inositol transporter, which is responsible for uptake and accumulation of myo-inositol into the cell, the ability of these two compounds to block [^3 H]myo-inositol transport was studied directly.
The uptake of [^3 H]myo-inositol by the myo-inositol transporter was determined as follows: PC12 cells were gently detached and maintained in a suspension culture in RPMI medium (both myo-inositol and serum free) at 37° C. [^3 H]myo-inositol was added to this culture at a concentration of 1μCi/ml. Aliquots of this suspension were removed at the indicated time, diluted in 10 volumes of ice-cold PBS containing 10 mM unlabelled myo-inositol to stop the uptake process, centrifuged at 4° C. for 20 minutes at 50xg. The cell pellet, which contained the transported [^3 H]myo-inositol, was dissolved in dilute NaOH and the radioactivity quantified by liquid scintillation counting.
The […] and Vmax of myoinositol were determined from LineweaverBurke plots
of the uptake of [^3 H]myoinositol (25 nM) in the presence of
increasing concentrations of unlabeled myoinositol in PC12 cells. The Ki
of the two fluoromyo-inositol analogs was determined by conducting the
uptake studies in the presence of a fixed concentration (1 mM) of each

[2] = tested on: PC12 cells; assay: Uptake and incorporation of [3H]myo-inositol into PC12 cells following treatment with inositol analogs; type: cell-based, rat
Protocol: Since myo-inositol must be incorporated into the cellular plasma membranes in order for it to serve its role as a second messenger, we therefore verified the ability of the 1- and 3-fluoro-myo-inositol analogs to perturb the incorporation of myo-inositol into cellular plasma membranes by the enzyme CDP-diacylglycerol-inositol phosphatidyltransferase (phosphatidylinositol synthetase).
These tests were conducted by treating cells for either 1, 3, 5, or 7 days with the myo-inositol analogs, followed by a brief exposure to radiolabeled myo-inositol ([^3 H]myo-inositol). The extent of incorporation of tritiated myo-inositol would, therefore, reflect the extent to which phosphatidylinositol and its phosphorylated analogs are deficient in the cellular plasma membranes.
Cells were grown as described hereinabove. Twenty-four hours after plating, the medium was changed and cells were exposed to either inositol free medium (Control 2) or medium containing either the 1- or the 3-fluoro-myo-inositol analog. […] Samples from both the pellet and supernatant were then obtained and the levels of radioactivity in each were determined. Radioactivity in the supernatant corresponded to the amount of free [^3 H]myo-inositol in the cytoplasm of the cell, whereas the radioactivity present in the TCA-precipated pellet represented [^3 H]myo-inositol incorporated into the cellular plasma membranes. […]

[3] = tested on: PC12 cells; assay: Effects of fluoroinositol treatment on cell size (protein per cell, Lowry); type: cell-based, rat
From the text: As cells grow in culture, the size of an individual cell varies in a fairly predictable way. The size of a cell can be expressed as the amount of protein present per cell. […] Immediately after mitosis, the cell size drops considerably, frequently to levels approximately half of the pre-mitotic level.
By investigating the size of a cell, it is possible to determine at which point within the cell cycle inhibitors of cell replication are exerting their effects. Accordingly, we investigated the effect of the 1- and 3-fluoro-myo-inositol analogs on the size of cells chronically treated with such analogs.
Cells were grown and treated with 1- and 3-fluoro-myo-inositol analogs as described in Example XIII. On the days indicated, cells were gently harvested without disruption, and the number of cells counted in triplicate in a cell counting chamber. Following determination of the number of cells per sample, the remainder of the cells were pelleted in a microcentrifuge as described hereinabove, and the protein in the sample was determined by the method of Lowry. Thus, it was possible to derive from these two data sets the amount of protein per cell, which is expressed as nanograms of protein per cell, as indicated in Table 3: […]

[4] = tested on: PC12 cells; assay: Cell growth inhibition in PC12 cells (cell counts; dose response and time course); type: cell-based, rat; conditions: dose response
Protocol: The biological effects of the 3-fluoro and 1-fluoro myo-inositol analogs were tested in PC12 cells, a cell line derived from a rat pheochromocytoma, which has been widely used to study the effects of various growth factors and differentiation promoters as further described by Green, L. A., et al., Adv. Cell Neurobiol., 3, 373-414, (1982), the disclosure of which is incorporated herein by reference.
PC12 cells were seeded at a density of 3.3×10^5 cells/cm^2 in plastic culture dishes and grown at 37° C. in a humidified atmosphere of 95% air/5% CO2. The basal medium used in these experiments was RPMI-1640 medium (Gibco). In some experiments a specially formulated inositol-free RPMI-1640 medium (Gibco) was used. This basal medium was supplemented with either normal or extensively dialyzed horse serum (10%) and fetal calf serum (5%) (Gibco). […]
A dose-response study was performed by growing cells in the presence of certain concentrations of the 3-fluoro and the 1-fluoro-myo-inositol analogs. At the end of five days, the cells were counted by the means described hereinabove.
The time course effect on cell replication was then examined, using the concentration of 1-fluoro and 3-fluoro myo-inositol analogs determined to have maximal effects in the dose response study of Table 1. […]

Row | Affinity Constant K (Ka) ([1]; Lineweaver-Burke plots, [3H]myo-inositol 25 nM with increasing unlabeled myo-inositol) | Maximal Transport Rate Vmax [1] | Structure (SMILES) | level of radioactively-labeled myo-inositol incorporated into the cellular plasma membranes ([2]; PC12 cells, result in words) | plateau of protein per cell relative to protein levels on day one [3] | potency in inhibiting cell replication relative to the 3-fluoro-myo-inositol analog [4] | potency in inhibiting cell replication relative to the 3-fluoro-myo-inositol analog ([4]; listed as I-fluoro-myo-inositol analog) | increase in the number of unoccupied sites for myo-inositol in the cellular plasma membranes ([2]; after several days of exposure)
1 | 45 µM | – | O[C@H]1[C@H](O)[C@@H](O)[C@H](O)[C@@H](O)[C@H]1O [Myo-inositol, myo-inositol] | – | – | – | – | –
2 | – | 2.27 nmol/mg/h | O[C@@H]1[C@@H](O)[C@H](O)[C@@H](F)[C@@H](O)[C@H]1O [3-deoxy-3-fluoroinositol, 3-deoxy-3-fluoro-myo-inositol] | quite low | – | – | – | –
3 | – | 2.27 nmol/mg/h | O[C@@H]1[C@@H](O)[C@@H](O)[C@@H](F)[C@H](O)[C@H]1O [1-deoxy-1-fluoroinositol, 1-deoxy-1-fluoro-myo-inositol] | – | approximately twice | about five-fold more potent | 5 fold | 10 fold
